Results published in the supplement of paper PMC10307832.

Columns and labels:
Experiment in all cases: relative viability (nuclei count vs DMSO), 5 days (fraction); higher = more cells survive
Tosedostat + Dasatinib = compound: CC(C)C[C@@H](C(=O)N[C@H](C(=O)OC1CCCC1)c1ccccc1)[C@H](O)C(=O)NO [Tosedostat] + Cc1nc(Nc2ncc(C(=O)Nc3c(C)cccc3Cl)s2)cc(N2CCN(CCO)CC2)n1 [Dasatinib] (partner 0.075 µM)
Summary of the method: (§1)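 Relative viability divides the nuclei count in treated wells by that in vehicle wells. Lung cancer cell lines were seeded in 1536-well plates, dosed by pin tool the next day, and fixed and stained after 5 days in one step with final 0.05% Triton X-100, 1% formaldehyde and 1 ug/ml Hoechst. Dosing was a single drug or a fixed anchor-drug dose plus five library-drug doses (not always all listed) in √10 steps, and values are medians of duplicate plates imaged at 4×.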

[1] = compound: CC1=NN=C(O1)C2=NN=C(C=C2)N3CCC(CC3)OC4=C(C=CC(=C4)F)Cl + CC(C)C[C@H](NC(=O)[C@H](Cc1ccccc1)NC(=O)c1cnccn1)B(O)O [Bortezomib] (partner 0.002 µM)
Summary of the method: as §1

[2] = compound: CC1=NN=C(O1)C2=NN=C(C=C2)N3CCC(CC3)OC4=C(C=CC(=C4)F)Cl + Cc1cc(Nc2cc(N3CCN(C)CC3)nc(Sc3ccc(NC(=O)C4CC4)cc3)n2)n[nH]1 [Tozasertib] (partner 0.1 µM)
Summary of the method: as §1

[3] = compound: CC1=NN=C(O1)C2=NN=C(C=C2)N3CCC(CC3)OC4=C(C=CC(=C4)F)Cl + Nc1nc2[nH]cc(CCc3ccc(C(=O)N[C@@H](CCC(=O)O)C(=O)O)cc3)c2c(=O)[nH]1 [Pemetrexed] (partner 0.2 µM)
Summary of the method: as §1

Cell Line	relative viability (Tosedostat + Dasatinib; first compound 0.02 µM)	relative viability (Tosedostat + Dasatinib; first compound 0.06325 µM)	relative viability (Tosedostat + Dasatinib; first compound 0.2 µM)	relative viability (Tosedostat + Dasatinib; first compound 0.6325 µM)	relative viability (Tosedostat + Dasatinib; first compound 2 µM)	relative viability ([1]; first compound 0.253 µM)	relative viability ([1]; first compound 0.8 µM)	relative viability ([1]; first compound 2.53 µM)	relative viability ([1]; first compound 8 µM)	relative viability ([2]; first compound 0.253 µM)	relative viability ([2]; first compound 0.8 µM)	relative viability ([2]; first compound 2.53 µM)	relative viability ([2]; first compound 8 µM)	relative viability ([3]; first compound 0.253 µM)	relative viability ([3]; first compound 2.53 µM)	relative viability ([3]; first compound 8 µM)	relative viability ([3]; first compound 0.8 µM)
LCLC-97TM1	0.901	0.988	0.811	0.819	0.915	0.373	0.211	0.392	0.362	0.182	0.137	0.172	0.207	0.184	0.199	0.184	
LCLC-103H	0.49	0.523	0.503	0.366	0.341	0.69	0.829	0.744	0.675	0.411	0.362	0.356	0.324	0.435	0.403	0.409	0.418
LOU-NH91	0.6	0.584	0.568	0.51	0.42		0.517	0.479	0.436	0.585	0.587	0.664	0.677		0.394	0.424	0.386
LU99A	0.517	0.495	0.506	0.424	0.413	1.01	1	1.06	0.953	0.279	0.271	0.268	0.287	0.149	0.162	0.164	0.18
LXF-289	0.199	0.248	0.244	0.225	0.184	0.682	0.674	0.753	0.619	0.181	0.141	0.179	0.131	0.768	0.767	0.726	0.594
NCI-H23	0.785	0.817	0.741	0.662	0.455	0.948		0.894	0.838	0.312		0.275	0.46	0.669	0.698	0.622	0.543
NCI-H322M	0.272	0.256	0.268	0.279	0.246	1.05	1.05	1.21	1.11	0.488	0.482	0.422	0.436	0.629	0.578	0.592	0.381
NCI-H441	0.702	0.61	0.583	0.445	0.539	0.294	0.362	0.305	0.234	0.457	0.388	0.423	0.419	0.295	0.223	0.258	0.265
NCI-H460	0.601	0.644	0.57	0.459	0.498	0.382	0.358	0.342	0.315	0.0757	0.107	0.144	0.129	0.0764	0.0645	0.071	0.0663
NCI-H520	0.146	0.202		0.243	0.28	0.378	0.5	0.518	0.542		0.38	0.398	0.443	0.644	0.642	0.471	0.543
NCI-H596	0.648	0.623	0.614	0.656	0.619		0.85	1.01	0.713	0.966	0.716	0.862	0.826	0.52	0.476	0.394	0.494
NCI-H647	0.212	0.211	0.218	0.197	0.151	0.539	0.742	0.786	0.606	0.166	0.105	0.126	0.0876	0.11	0.13	0.111	0.158
NCI-H650	0.471	0.49	0.424	0.422	0.388	0.787	0.546	0.716	0.555	0.724	0.698	0.676	0.682	0.943	0.781	0.814	0.65
NCI-H661	1.02	0.834	0.846	0.815	0.695	0.695	0.539	0.801	0.669	0.305	0.319	0.308	0.265	0.736	0.676	0.652	0.695
NCI-H838	0.317	0.342	0.299	0.329	0.27	0.697	0.592	0.553	0.645	0.244	0.248	0.247	0.245	0.235	0.215	0.23	0.251
NCI-H1355	0.758	0.681	0.728	0.592	0.57			1.1	0.945	0.496	0.344	0.402	0.365	0.715	0.949	0.874	0.562

Cell Line	relative viability (Tosedostat + Dasatinib; first compound 0.02 µM)	relative viability (Tosedostat + Dasatinib; first compound 0.06325 µM)	relative viability (Tosedostat + Dasatinib; first compound 0.2 µM)	relative viability (Tosedostat + Dasatinib; first compound 0.6325 µM)	relative viability (Tosedostat + Dasatinib; first compound 2 µM)	relative viability ([1]; first compound 0.253 µM)	relative viability ([1]; first compound 0.8 µM)	relative viability ([1]; first compound 2.53 µM)	relative viability ([1]; first compound 8 µM)	relative viability ([2]; first compound 0.253 µM)	relative viability ([2]; first compound 0.8 µM)	relative viability ([2]; first compound 2.53 µM)	relative viability ([2]; first compound 8 µM)	relative viability ([3]; first compound 0.253 µM)	relative viability ([3]; first compound 2.53 µM)	relative viability ([3]; first compound 8 µM)	relative viability ([3]; first compound 0.8 µM)
NCI-H1437	0.488	0.46	0.415	0.323	0.327	0.31	0.342	0.424	0.342	0.256	0.204	0.228	0.175	0.24	0.232	0.218	0.282
NCI-H1650	0.329	0.362	0.346	0.448	0.311		0.202	0.17	0.197		0.357	0.361	0.235	0.317	0.33	0.343	0.349
NCI-H1651	0.566	0.384	0.411	0.399	0.338	0.782	0.708	0.649	0.686	0.58	0.66	0.567	0.571	0.488	0.445	0.444	0.422
NCI-H1666	0.771	0.871	0.854	0.848	0.874	0.419	0.851	0.756	0.57	0.43	0.496	0.458	0.388	0.735	0.741	0.751	0.69
NCI-H1734	0.523	0.477	0.436	0.466	0.446	0.65	0.592	0.824	0.805	0.262	0.287	0.216	0.247	0.433	0.434	0.438	0.364
NCI-H1755	0.436	0.403	0.444	0.42	0.361	0.493	0.625	0.73	0.628	0.425	0.45	0.467	0.405	0.424	0.418	0.365	0.426
NCI-H1915	0.321	0.348	0.306	0.277	0.215	0.4	0.31	0.456	0.323	0.265	0.222	0.222	0.192	0.376	0.3	0.235	0.232
NCI-H1975	0.369	0.358	0.35	0.268	0.34		0.367	0.299	0.306		0.595	0.48	0.261	0.217	0.271	0.25	0.272
NCI-H1993	0.471	0.561	0.502	0.519	0.505	0.922	0.901	0.925	0.966	0.558	0.603	0.635	0.571	0.533	0.566	0.541	0.499
NCI-H2009	0.279	0.334	0.226	0.267	0.24	0.555	0.426	0.523	0.493	0.372	0.39	0.376	0.353	0.605	0.587	0.517	0.547
NCI-H2023	0.585	0.571	0.552	0.518	0.505	0.49	0.415	0.505	0.386	0.301	0.216	0.205	0.147	0.188	0.235	0.182	0.189
NCI-H2085	0.205	0.234	0.256	0.276	0.307	0.745	0.813	1.03	0.761	0.454	0.614	0.538	0.515	0.801	0.841	0.696	0.676
NCI-H2087	1.17	0.936	0.908	0.688	0.869	0.45	0.437	0.489	0.512	0.194	0.157	0.156	0.114	0.561	0.511	0.47	0.534
NCI-H2126	0.611	0.662	0.636	0.63	0.558	0.965	0.907	0.842	0.837	0.765	0.786	0.763	0.715	0.69	0.635	0.606	0.607
NCI-H2228	0.51	0.497	0.494	0.344	0.338	0.725	0.804	1.27	0.772	0.214	0.198	0.212	0.207	0.28	0.3	0.363	0.333
NCI-H2347	0.269	0.353	0.291	0.311	0.26	0.611	0.8	0.898	0.799		0.447	0.579	0.497	0.422	0.442	0.39	0.406
